Data: paper PMC9490236, “Accurate de novo design of membrane-traversing macrocycles” (Cell, 2022)
Several values for one entry are separate records, joined by “and”; a condition that tells them apart may be missing. Equal values may be shown once. Read-outs that look alike come from different tables or passages of the source. Where a SMILES comes first, the peptide text is derived from it. [ ]: non-standard residue; d: D form. dNMeL = CN[C@H](CC(C)C)C(=O)O

Assays:
[1] = Caco-2 permeability assay (apical to basolateral); format: in vitro ADME, human; details: Caco-2, Caco_Papp_Average
Procedure, shortened: (§1)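 Caco-2 monolayers were grown on 0.4 μm Transwell inserts for 6 days. Peptides were applied apically at 50 μM with HBSS basolaterally and incubated 90 min at 37°C with shaking.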

[2] = system: Caco-2 cells; assay: Caco-2 permeability assay (apical to basolateral); format: in vitro ADME, human; details: Caco-2
Procedure, shortened: as §1

[3] = Pharmacokinetics and oral bioavailability of D8.3.p1 and D10.1 in Balb/C female mice (PO, SQ, IV); format: in vivo
Procedure: In vivo bioavailability assays were conducted in mice and rats. D8.3.p1 and D10.1 were studied in female Balb/C mice by van Voorhis group at University of Washington. D11.2 was evaluated in Sprague Dawley (SD) rats by Robert Griffin’s group at Takeda Pharmaceuticals. D11.3 was studied in the male swiss albino mice by the contract research organization, GVK Biosciences Pvt. Ltd., Hyderabad, India. All animals used in these studies were handled in strict accordance with practices made to minimize suffering. All animal experiments conducted at the University of Washington, USA, and Takeda Pharmaceuticals, USA were approved by the Institutional Animal Care and Use Committee. Animal studies at GVK Biosciences were reviewed and approved by the Institutional Animal Ethics Committee of GVK Biosciences. We selected four designed macrocycles with diverse structures and in vitro rates of permeability for in vivo oral bioavailability studies in the rodent models. Due to the intensive resource requirements for such studies, these studies were conducted by three different research groups. D8.3.p1 and D10.1 were studied in female Balb/C mice by van Voorhis group at University of Washington. D11.2 was evaluated in Sprague Dawley (SD) rats by Robert Griffin’s group at Takeda Pharmaceuticals. D11.3 was studied in the male swiss albino mice by the contract research organization, GVK Biosciences Pvt. Ltd., Hyderabad, India. […] Blood samples were collected at multiple time points and plasma was separated from whole blood using centrifugation and stored at -80°C. […] Samples were mixed, centrifuged, and supernatant harvested for LC-MS analysis. For RP-HPLC analysis, peptides were evaluated using Agilent ZORBAX Eclipse Plus C18 1.8 μm, 2.1 mm x 50 mm and Waters Xevo TQ-S micro Triple Quadrupole/ACQUITY UPLC H-Class. […] Pharmacokinetic parameters were modeled using the Phoenix WinNonlin software package. […]

[4] = PAMPA
[5] = D8.3.p1 IV 1 mg/kg, individual mice M1, M2, M3, 1 mg/kg
[6] = D8.3.p1 PO 5 mg/kg, individual mice M1, M2, M3, 5 mg/kg
[7] = D8.3.p1 SQ 5 mg/kg, individual mice M1, M2, M3
[8] = female, Balb/C, mouse, in vivo, iv, 1 mg/kg, Plasma level
[9] = female, Balb/C, mouse, in vivo, sc, 5 mg/kg, Plasma level

Structure (SMILES): CC[C@@H](C)[C@H]1NC(=O)[C@@H](CC(C)C)NC(=O)[C@@H](CC(C)C)N(C)C(=O)[C@@H]2CCCN2C(=O)[C@@H](C(C)C)NC(=O)[C@H](CC(C)C)NC(=O)[C@@H](CC(C)C)N(C)C(=O)[C@@H]2CCCN2C1=O [Design D8.3.p1, DLEU DVAL PRO *DLEU DLEU DILE PRO *DLEU] (cyclo(L[dV]P[dNMeL][dL][dI]P[dNMeL]))
- Papp A→B [1]: 11.8 ×10⁻⁶ cm/s
- Caco_R1 [2]: 13.1
- Caco_R3 [2]: 8.9
- CLP [3, 5]: 37.62 mL/min/kg and 49.17 mL/min/kg and 38.55 mL/min/kg
- MRT [3, 5]: 15.45 min and 13.12 min and 15.23 min
- T1/2 [3, 5]: 14.5 min and 10.5 min and 11.24 min
- VSS [3, 5]: 0.79 L/kg and 0.75 L/kg and 0.62 L/kg
- VZ [3, 5]: 0.89 L/kg and 0.87 L/kg and 0.59 L/kg
- C0 ([3]; D8.3.p1 IV 1 mg/kg, individual mice M1, M2, M3, 1 mg/kg, read-out: C0): 1610 nM and 1470 nM
- Half-life T1/2 ([3]; D8.3.p1 IV 1 mg/kg, mean n=3): 12.08 min
- Mean residence time MRT ([3]; D8.3.p1 IV 1 mg/kg, mean n=3): 14.60 min
- Plasma clearance CLP ([3]; D8.3.p1 IV 1 mg/kg, mean n=3): 41.78 mL/min/kg
- Volume of distribution @ steady state VSS ([3]; D8.3.p1 IV 1 mg/kg, mean n=3): 0.72 ± 0.09 L/kg
- Volume of distribution during elimination phase VZ ([3]; D8.3.p1 IV 1 mg/kg, mean n=3): 0.78 ± 0.17 L/kg
- C0 ([3]; D8.3.p1 IV 1 mg/kg, mean n=3, read-out: Initial concentration C0): 1530 ± 70 nM
- Oral bioavailability F ([3]; D8.3.p1 PO 5 mg/kg vs IV 1 mg/kg, mean): 10.74%
- Cl/F [3, 6]: 0.0112 L/min and 0.00671 L/min and 0.00706 L/min
- T1/2 [3, 6]: 23.33 min and 18.86 min and 45.25 min
- Tmax [3, 6]: 15 min and 30 min
- Cmax ([3]; D8.3.p1 PO 5 mg/kg, individual mice M1, M2, M3, 5 mg/kg, read-out: Cmax): 220 nM and 190 nM
- Apparent clearance Cl/F ([3]; D8.3.p1 PO 5 mg/kg, mean n=3): 0.00834 L/min
- Half-life T1/2 ([3]; D8.3.p1 PO 5 mg/kg, mean n=3): 29.15 min
- Time of max concentration Tmax ([3]; D8.3.p1 PO 5 mg/kg, mean n=3): 25 ± 0.01 min
- Cmax ([3]; D8.3.p1 PO 5 mg/kg, mean n=3, read-out: Max concentration Cmax): 210 ± 20 nM
- Cl/F [3, 7]: 0.000617 L/min and 0.000577 L/min and 0.000312 L/min
- T1/2 [3, 7]: 111.2 min and 101.86 min and 250.78 min
- Tmax [3, 7]: 60 min and 30 min
- Cmax ([3]; D8.3.p1 SQ 5 mg/kg, individual mice M1, M2, M3, read-out: Cmax): 840 nM and 1080 nM and 930 nM
- Half-life T1/2 ([3]; D8.3.p1 SQ 5 mg/kg, mean n=3): 154.61 min
- Time of max concentration Tmax ([3]; D8.3.p1 SQ 5 mg/kg, mean n=3): 50 ± 17.32 min
- Cmax ([3]; D8.3.p1 SQ 5 mg/kg, mean n=3, read-out: Max concentration Cmax): 950 ± 120 nM
- Plasma level ([3]; female, Balb/C, mouse, in vivo, iv, 1 mg/kg, 5 min): 990 nM
- Plasma level ([3]; female, Balb/C, mouse, in vivo, iv, 1 mg/kg, 0.25 h): 630 nM
- level at time molar at 5 min [3, 8]: 1110 nM
- level at time molar at 0.25 h [3, 8]: 420 nM
- level at time molar at 0.5 h [3, 8]: 190 nM
- Plasma level ([3]; female, Balb/C, mouse, in vivo, sc, 5 mg/kg, 0.25 h): 700 nM
- Plasma level ([3]; female, Balb/C, mouse, in vivo, sc, 5 mg/kg, 0.5 h): 710 nM
- Plasma level ([3]; female, Balb/C, mouse, in vivo, sc, 5 mg/kg, 2 h): 880 nM
- Plasma level ([3]; female, Balb/C, mouse, in vivo, sc, 5 mg/kg, 6 h): 230 nM
- level at time molar at 0.25 h [3, 9]: 510 nM
- level at time molar at 0.5 h [3, 9]: 540 nM
- level at time molar at 1 h [3, 9]: 840 nM
- level at time molar at 2 h [3, 9]: 720 nM
- level at time molar at 6 h [3, 9]: 150 nM
- level at time molar at 24 h [3, 9]: 20 nM
- level at time molar at 0.5 h ([3]; female, Balb/C, mouse, in vivo, sc, D8.3.p1 SQ 5 mg/kg, 30 min, individual mice M1, M2, M3, read-out: Plasma level): 1080 nM
- AUC(0-inf) ([3]; female, Balb/C, mouse, in vivo, D8.3.p1 PO 5 mg/kg, mean n=3): 0.238 µM·h
- AUC(0-t) ([3]; female, Balb/C, mouse, in vivo, D8.3.p1 PO 5 mg/kg, mean n=3, read-out: AUC0-t (converted)): 0.182 µM·h
- CL/F ([3]; female, Balb/C, mouse, plasma, sc, D8.3.p1 SQ 5 mg/kg, mean n=3, read-out: Apparent clearance Cl/F): 0.502 mL/min
- Tmax ([3]; mouse, in vivo, 5 mg/kg, Tmax): 60 min
- Plasma level ([3]; mouse, in vivo, iv, 1 mg/kg, 5 min): 1070 ± 70 nM
- Plasma level ([3]; mouse, in vivo, iv, 1 mg/kg, 0.5 h): 270 ± 90 nM
- Plasma level ([3]; mouse, in vivo, iv, 1 mg/kg, 1 h): 60 ± 40 nM
- C0 ([3]; mouse, in vivo, iv, 1 mg/kg, C0): 1520 nM
- Plasma level ([3]; mouse, in vivo, po, 5 mg/kg, 1 h): 120 ± 40 nM
- Plasma level ([3]; mouse, in vivo, po, 5 mg/kg, 2 h): 10 nM
- Cmax ([3]; mouse, in vivo, po, 5 mg/kg, Cmax): 230 nM
- Tmax ([3]; mouse, in vivo, po, 5 mg/kg, Tmax): 30 min
- Plasma level ([3]; mouse, in vivo, sc, 5 mg/kg, 0.25 h): 610 ± 130 nM
- Plasma level ([3]; mouse, in vivo, sc, 5 mg/kg, 0.5 h): 780 ± 280 nM
- Plasma level ([3]; mouse, in vivo, sc, 5 mg/kg, 1 h): 900 ± 50 nM
- Plasma level ([3]; mouse, in vivo, sc, 5 mg/kg, 2 h): 780 ± 90 nM
- Plasma level ([3]; mouse, in vivo, sc, 5 mg/kg, 4 h): 340 ± 170 nM
- Plasma level ([3]; mouse, in vivo, sc, 5 mg/kg, 6 h): 130 ± 120 nM
- Plasma level ([3]; mouse, in vivo, sc, 5 mg/kg, 24 h): 10 ± 0 nM
- PAMPA_R1 [4]: 5.23E-06
- PAMPA_R3 [4]: 3.90E-06
